Patent US4259342A, “Antianginal treatment with azepine derivatives” (priority 1978, dated 1981)
Counter-ions that a name gives are not always drawn. Like-named read-outs stand apart in the source and are kept apart here.

Experiments:
vagotomized rats = test: heart rate lowering effect on vagotomized rats; assay type: in vivo; conditions: Rattus norvegicus, iv, 0.5 h, read-out: D50 (dose which lowers the heart rate by 50 beats/min.)
Experimental: were tested as follows with regard to their heart rate lowering effect on vagotomized rats:
The animals were vagotomized and received a tracheal cannula; a polyethylene catheter was placed into the jugular vein. For measuring the ECG, needle electrodes were clamped to the extremities. During the test the body temperature of the animals was kept constant (34° C.).
After balancing out a constant starting heart rate (determined by counting the heart beats from the ECG), the test compound was intravenously administered to the animal. 30 minutes later the type was measured again.
Each compound was tested at 3 dosages administered to each of 6 animals; only one compound and dose per animal.
The average of the 6 single values per dose (Δ heart rate in beats/min.) was determined, and the dose activity curves were prepared, from which the D50 (dose which lowers the heart rate by 50 beats/min.) was determined:

[1] = acute toxicity in mice after administration per os (Litchfield and Wilcoxon); conditions: mouse, in vivo, po, mice of both sexes, deaths within 14 days
Experimental: The acute toxicity was determined in mice of both sexes with an average body weight of 20 gm after administration per os. From the percentage of the animals which died within 14 days after the administration of various doses, the LD50 was determined according to the method of Litchfield and Wilcoxon (J. Pharmacol. exp. Ther. 96, 99 (1949): […]

[2] = tested on: patients with angina pectoris; test: exercise test on bicycle ergometer in patients with angina pectoris, crossover single-blind against placebo (antianginal activity); assay type: in vivo
Experimental: The antianginal activity of
was determined in patients with angina pectoris as follows:
11 Patients with clinical and electrocardiographic symptoms of coronary insufficiency were selected for a crossover comparative single-blind study of compound A against placebo. Only those patients were allocated to one of the 2 treatments who complained of precordial pain at the same workload on 3 different days during the run-in period. In order to avoid carry-over effects the sequence of treatment was A placebo in every patient. 30 minutes after the injection of the test substance the patients were exercised on a bicycle ergometer. They started with a workload of 25 watts, which was increased every 3 minutes by 25 watts until the onset of pain. The heart rate and the blood pressure were registered every minute. The heart rate was determined by means of an ECG; the measurement of the blood pressure was carried out according to Riva-Rocci always by the same medical assistant.
The following parameters were evaluated:
1. Time until the onset of pain
2. Heart rate at the onset of pain
3. Blood pressure at the onset of pain
4. The workload performed, resulting from the sum of the products multiplied by the watts per minute (W×min).
5. The maximum workload, which results from the watts of the last complete exercise period (lasting 3 minutes) and the watts of the next unfinished period (watts)
6. The pressure frequency product as index for the oxygen consumption, which was calculated from the product of the heart rate and of the systolic blood pressure.
Since some patients reported pain without depression of the ST segment, ST segment was not evaluated

[3] = i.v., vagotomized rats, 30 minutes after administration, 3 dosages, 6 animals each
[4] = at the moment of the highest comparable workload, 30 minutes after injection
[5] = at the onset of pain, 30 minutes after injection

Compound: C=CCN1CCc2nc(N)oc2CC1 [B, 2-Amino-6-allyl-4,5,7,8-tetrahydro-6H-oxoazolo[5,4-d]azepine dihydrochloride]
- ED (50 beats/min) (vagotomized rats; [3]): 0.1 mg/kg

Compound: CCN1CCc2nc(N)sc2CC1.Cl.Cl [C, 2-Amino-6-ethyl-4,5,7,8-tetrahydro-6H-thiazolo[5,4-d]azepine dihydrochloride]
- ED (50 beats/min) (vagotomized rats; [3]): 0.032 mg/kg
- LD50 at 336 h [1]: > 1500 mg/kg

Compound: CCN1CCc2nc(N)oc2CC1.Cl.Cl [Compound A, 2-Amino-6-ethyl-4,5,7,8-tetrahydro-6H-oxazolo[5,4-d]azepine dihydrochloride]
- ED (50 beats/min) (vagotomized rats): 0.5 mg/kg
- LD50 at 336 h [1]: 2210 mg/kg
- increase of duration of exercise performance (time patients could be exercised longer) vs control ([2]; 30 minutes after injection, control 6 minutes on the average): 2 min
- reduction of heart rate at the highest comparable workload ([2]; at the highest comparable workload, 30 minutes after injection): 12 beats/min
- diastolic blood pressure at the highest comparable workload [2, 4]: unchanged
- reduction of systolic blood pressure at the highest comparable workload [2, 4]: 19 mm Hg
- diastolic blood pressure at the onset of pain [2, 5]: unchanged
- increase of heart rate at the onset of pain [2, 5]: 2 beats/min
- reduction of systolic blood pressure at the onset of pain [2, 5]: 8 mm Hg
- difference of heart rate between placebo and compound A during the last complete minute before stopping ([2]; last complete minute before stopping, direction not given): 3 beats/min
- reduction of systolic blood pressure over placebo during the last minute before stopping ([2]; last minute before stopping): 9 mm Hg
- product of pressure frequency during the last minute before stopping ([2]; last minute before stopping, placebo 313): 295
- product of pressure frequency at the highest comparable strain ([2]; moment of the highest comparable strain, placebo 310): 258
- maximum work (maximum workload) ([2]; placebo 76 watts): 87 watts
- average work performed until workload was stopped ([2]; placebo 495 W×min): 627 W×min
- O2 consumption of the heart (concluded from rate/pressure product) ([2]; summary in words): diminishes O2 consumption
- effect on duration of exercise and exercise capacity ([2]; summary in words): increases the duration of exercise and exercise capacity

Compound: CCCN1CCc2nc(N)sc2CC1.Cl.Cl [Compound D, 2-Amino-6-n-propyl-4,5,7,8-tetrahydro-6H-thiazolo[5,4-d]azepine dihydrochloride]
- ED (50 beats/min) (vagotomized rats; [3]): 0.012 mg/kg

Compound: C=CCN1CCc2nc(N)sc2CC1.Cl.Cl [E, 2-Amino-6-allyl-4,5,7,8-tetrahydro-6H-thiazolo[5,4-d]azepine dihydrochloride]
- ED (50 beats/min) (vagotomized rats; [3]): 0.042 mg/kg
- LD50 at 336 h [1]: 455 mg/kg

Compound: Cl.Cl.Nc1nc2c(s1)CCN(CCO)CC2 [F, 2-Amino-6-(2-hydroxy-ethyl)-4,5,7,8-tetrahydro-6H-thiazolo[5,4-d]azepine dihydrochloride]
- ED (50 beats/min) (vagotomized rats; [3]): 0.037 mg/kg
- LD50 at 336 h [1]: ~1000 mg/kg

Compound: Nc1nc2c(s1)CCN(Cc1ccc(Cl)cc1)CC2 [G, 2-Amino-6-(4-chloro-benzyl)-4,5,7,8-tetrahydro-6H-thiazolo[5,4-d]azepine dihydrocloride]
- ED (50 beats/min) (vagotomized rats; [3]): 1.4 mg/kg
- LD50 at 336 h [1]: 905 mg/kg
